Results: ChEMBL document CHEMBL1131184, “Novel CDC25A phosphatase inhibitors from pyrolysis of 3-alpha-azido-B-homo-6-oxa-4-cholesten-7-one on silica gel” (J Med Chem, 1998)
pIC50: −log10 of the molar value.

Biological target: T1, M-phase inducer phosphatase 1 (Homo sapiens, UniProt P30304)
T1 sequence (P30304 whole entry): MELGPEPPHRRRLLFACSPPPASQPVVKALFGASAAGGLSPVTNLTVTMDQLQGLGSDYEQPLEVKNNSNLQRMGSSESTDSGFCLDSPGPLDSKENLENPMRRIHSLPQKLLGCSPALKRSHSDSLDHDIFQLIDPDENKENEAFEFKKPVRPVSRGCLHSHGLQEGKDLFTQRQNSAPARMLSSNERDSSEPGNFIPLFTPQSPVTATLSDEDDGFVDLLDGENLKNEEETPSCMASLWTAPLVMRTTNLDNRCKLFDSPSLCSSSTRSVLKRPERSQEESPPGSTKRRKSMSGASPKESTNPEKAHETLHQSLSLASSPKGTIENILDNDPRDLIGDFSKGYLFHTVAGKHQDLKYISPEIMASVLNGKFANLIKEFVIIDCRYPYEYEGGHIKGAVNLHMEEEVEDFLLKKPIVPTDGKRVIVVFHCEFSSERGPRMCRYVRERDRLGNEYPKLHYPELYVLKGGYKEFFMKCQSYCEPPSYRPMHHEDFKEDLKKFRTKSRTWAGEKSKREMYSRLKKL
Experiment: Compound was evaluated for the inhibition of Cdc25A phosphatase by using fluorescein diphosphate as substrate

pIC50	Structure (SMILES)
< 4.30	CC(C)CCCC(C)[C@H]1CC[C@H]2[C@@H]3CC(=O)O[C@](C)(CC/C=C\C#N)[C@H]3CC[C@]12C (stereo not given in full)
4.88	CC(C)CCCC(C)[C@H]1CC[C@H]2[C@@H]3CC(=O)O[C@@](C)(CC/C=C\C#N)[C@H]3CC[C@]12C (stereo not given in full)
5.01	C=C(CC/C=C\C#N)[C@H]1CC[C@]2(C)[C@@H](C(C)CCCC(C)C)CC[C@H]2[C@@H]1CC(=O)O (stereo not given in full)
5.66	C=C(CCCCC#N)[C@H]1CC[C@]2(C)[C@@H]([C@H](C)CCCC(C)C)CC[C@H]2[C@@H]1CC(=O)O
4.62	C/C(=C\C/C=C\C#N)[C@H]1CC[C@]2(C)[C@@H](C(C)CCCC(C)C)CC[C@H]2[C@@H]1CC(=O)O (stereo not given in full)
